Test: Oxygen Radical Absorbance Capacity (ORAC) antioxidant potential
Details: ORAC test, test solutions at 100 micromolar; calculated from ORAC values relative to Trolox
Protocol: Antioxidant potential is evaluated using the Oxygen Radical Absorbance Capacity (ORAC) protocol. ORAC is a chemical in-vitro method based on the hydrogen atom transfer (HAT) mechanism (see N. Re et al., Free Radical Biology & Medicine, 26 (9/10), 1231 (1997)). ORAC measures antioxidant inhibition of peroxyl radical induced oxidations and thus reflects classical radical chain breaking antioxidant activity by H atom transfer. In this assay, the peroxyl radical reacts with a fluorescent probe to form a non-fluorescent product. This is quantitated using a fluorescence measurement. Antioxidant capacity is determined by decreased rate and amount of product formed over time. This assay depends upon the free radical damage to the fluorescent probe resulting in the change in its fluorescence intensity. The change of fluorescence intensity is an indicator of the degree of free radical damage. In the presence of an antioxidant, the inhibition of free radical damage is reflected in higher fluorescence intensity and can be measured as antioxidant capacity against the free radicals. The uniqueness of ORAC assay is that the reaction is driven to completion. This allows calculation of the area under the curve (AUC) and gives an absolute quantitation of antioxidancy as opposed to relative measurements in many other assays.
As noted, the longer it takes to observe a decrease in fluorescence, the higher the antioxidant (AO) potential. From the AUC for a given antioxidant, the AUC for blank is subtracted to give its ORAC value. The concentration of AO needed to give the same AUC values as Trolox is calculated and used to represent the Trolox equivalent AO Capacity (TEAC). Trolox is ((±)-6-Hydroxy-2,5,7,8-tetramethylchromane-2-carboxylic acid, CAS #53188-07-1), and is used as an internal control. […]
The inventive stilbene-pendant nitrones in the ORAC test solutions were at a concentration of 100 micromolar, while the concentrations of Trolox, Vitamin C, Vitamin E, BHT, PBN+BHT, and VAL-IPHA were at 100 micromolar. The TEAC values calculated from the ORAC values are listed the Table 2.

## CC(C)(C)/[N+]([O-])=C/c1ccccc1 [PBN, 2-Phenyl-N-tert-butylnitrone]
  TEAC (Trolox equivalent AO Capacity): not very high

## Vitamin E
  TEAC (Trolox equivalent AO Capacity): 0.13

## O=C1O[C@H]([C@@H](O)CO)C(O)=C1O [Vitamin C]
  TEAC (Trolox equivalent AO Capacity): 0.76

From US10064804B2, “Polymeric nitrones and their use in personal care” (Dow Global Technologies LLC, priority 2014, dated 2018)
